Measured values published in patent US20090221690A1, “Pharmaceutical Composition for the Prevention/Treatment of Bone Disorders and a Process for the Preparation Thereof” (COUNCIL OF SCIENTIFIC AND INDUSTRIAL RESEARCH, priority 2006, published 2009).

Assays:
[1] = test system: bilaterally ovariectomized immature rats; test: Estrogen agonistic activity (uterine weight gain); format: in vivo, rat; settings: 0.01 mg/kg/d, oral, 3 days
Experimental: The test agents were administered once daily for 3 consecutive days by the oral route and uterine weight gain over the corresponding vehicle control group was determined. 17α-Ethynylestradiol was used as reference standard.

[2] = test system: Cladosporium cladosporioides; settings: Bandara et al. 1989/1990; cited from earlier work
osteoblast cells = test: Quantification of mineralization in osteoblasts (Alizarin red, acetic acid extraction); format: cell-based, Balb/c mouse; settings: osteoblasts cultured 7 days; vs vehicle control; FIG. 13
Experimental: (§1) Neonatal mouse calvarial cell cultures are prepared as described previously (Endocrinology 139:4743) using slight modification. Briefly, for primary osteoblast cell cultures, frontal and parietal bones from Balb/c mouse neonates (1-3 day old) are digested in 0.1% collagenase/0.1% dispase in α-MEM to obtain 5 sequential digests. The second through fifth digests are combined and grown to confluence at 37° C. and 5% CO2 in air in α-MEM, supplemented with 10% fetal bovine serum (FBS), 2 mM glutamine, 100 U/ml penicillin-streptomycin, Non-essential amino acid solution and sodium pyruvate. The effect of test agents is analysed using the following tests:
For quantification of mineralization which is measured with increased deposition of nascent calcium in osteoblast cells, cells were cultured in the presence of test compounds for 7 days and stained with Alizarin red. Alizarin red was extracted with acetic acid and the intensity of stain, which is directly proportion to the extent of mineralisation, is read at 405 nm.

osteoblasts [3] = test: Osteogenic activity of isolated compounds based on alkaline phosphatase expression, MTT and mineralisation in vitro; format: cell-based
Text: K051, K052, K054, K080, K082 (isolated from n-butanol soluble fraction) and K095 (isolated from chloroform soluble fraction) (FIGS. 11-15; Tables 10-11).

[4] = test system: osteoblasts cultured on sterile bovine bone slices; test: Mineralisation by osteoblasts cultured on bovine bone slices, Alizarin red staining; format: cell-based, Balb/c mouse; settings: 15 days, FIGS. 14 and 15
Experimental: as §1
(§2) Cells are seeded onto sterile bovine bone slices in 96-well plate and treated with the culture medium containing α-MEM, supplemented with 10% fetal bovine serum, 2 mM glutamine, 100 U/ml penicillin-streptomycin, non-essential amino acid solution, sodium pyruvate, 10 mM P-glycerophosphate and 50 μg/ml ascorbic acid. Culture medium is changed every alternate day. At termination of the culture, cells are washed twice with PBS, fixed in cold 70% ethanol for 1 h and washed once with water and stained with 40 mM Alizarin red (pH 4.7) for 30 min and then washed in PBS to remove excess staining.
as §2, with “In case of osteoblasts” for “Cells are”, “slices, the cells are cultured” for “slices”, “in A-MEM” for “and treated with the culture medium containing α-MEM,”, “p-glycerophosphate” for “P-glycerophosphate”, “acid in the absence or presence of test compounds or their mixtures.” for “acid.”, “culture after 15 days,” for “culture,”

primary osteoblasts = test: MTT assay for cell proliferation, primary osteoblast cell culture; format: cell-based, Balb/c mouse; settings: 24 h; for Osteoblast cell proliferation (MTT assay): Vehicle 0.60 ± 0.06, Mean±SEM
Experimental: as §1
MTT assay is a common assay used for assessing cell proliferation where tetrazolium salt is reduced to formazone crystals by the mitochondrial dehydrogenase enzyme, which are then dissolved in DMSO. More the number of metabolically active cells more will be the formazone crystals formed. Briefly, osteoblast cells are maintained in α-MEM medium supplemented with 10% FCS and 1% antibiotic solution in 96 well plate. When the cells attain 40% confluency, they are treated in presence or absence of test agents in 2% FCS supplemented media for 24 h. Twenty-four hours thereafter, MTT salt is added to the cells. After 4 h, the formazone crystals formed are dissolved in DMSO and readings taken at wavelength of 570 nm.
This assay is based on the ability of viable cells to reduce tetrazolium salt to form formazone crystals by mitochondrial dehydrogenase enzyme. In MTT assay, osteoblasts are maintained in α-MEM medium supplemented with 10% FCS and 1% antibiotic solution in 96 well plate. When the cells attain 40% confluency, they are treated in presence or absence of test agents in 2% FCS supplemented media for 24 h. Twenty-four hours thereafter, MTT salt is added to the cells. After 4 h, the formazone crystals formed due to reduction of tetrazolium salt by mitochondrial dehydrogenase enzyme are dissolved in DMSO and readings taken at wavelength of 570 nm. All the five pure compounds nos.

osteoblasts [5] = test: Quantification of alkaline phosphatase activity in osteoblasts; format: cell-based, Balb/c mouse; parameters: alkaline phosphatase activity: unit not given here; settings: 48 h; for alkaline phosphatase activity: Control 1.87 ± 0.20, Mean±SEM
Experimental: as §1
p-Nitrophenol phosphate is a colorless substrate which is hydrolysed to colored p-nitrophenol by alkaline phosphatase enzyme. Rate of hydrolysis of p-nitrophenol phosphate is proportional to enzyme present in sample. […] Findings reveal that all the five pure compounds nos.

[6] = test system: labeled chick fetal bones in culture; test: Chick fetal bone culture assay, bone forming activity; format: cell-based; settings: 0.4 μM; T/C close to unity = no bone forming activity
Experimental: A slight modification of the method of Raisz (Nature 197: 1015-1016, 1963) was employed. Femur bones are isolated from chick embryos on day 11 post-ovulation and cleared of adhering connective tissue by carefully rotating each bone on dry Whatman (I) filter paper under stereomicroscope. Each femur bone is then placed in a drop of PBS before culturing in BGJb medium (pH 7.3) supplemented with penicillin (0.075 mg/ml), streptomycin (0.05 mg/ml), HEPES (2.382 mg/ml) and BSA (1 mg/ml), transferred to BGJb culture medium containing ^45CaCl2 (0.5 μCi/300 μl culture medium) and incubated for 2 h at 37° C. under 5% CO2 in air. Labeled femur bones are then washed with BGJb medium for 24 h at 37° C. under 5% CO2 in air. […]
Contralateral femur of each fetus serves as corresponding control. […] Radioactivity due to ^45Ca in the spent medium collected at 24, 48 and 96 h of culture and HCl extract at 96 h of culture is quantified by Liquid Scintillation Spectrophotometer in 10 ml of the scintillation fluid (ACS II scintillation cocktail, Amersham Biosciences, UK). […]
Bone forming activity (cpm)=A×(A/B)^1/2 ×Total radioactivity incorporated into bone during 24 h incubation with ^45Ca
where total radioactivity refers to ^45Ca released into the medium during first 24 hrs incubation+^45Ca released into the medium during 24 to 96 hr of incubation+^45Ca remaining in the femur. […]

Q: For `C#C[C@]1(O)CC[C@H]2[C@@H]3CCc4cc(O)ccc4[C@H]3CC[C@@]21C` [17α-Ethynylestradiol], which Uterine weight gain [1] is on record?
A: Its Uterine weight gain is 514%.

Q: For `COc1ccc2c(c1)OC1c3ccc(O)cc3OCC21` (centres unmarked) [Compound K095, 3-hydroxy-9-methoxypterocarpans], which “activity against Cladosporium cladosporioides” value [2] is on record?
A: Its value is “active”.

Q: And the “mineralisation quantified by alizarin extraction method” value (osteoblast cells)?
A: The value was “enhanced mineralisation”.

Q: What about the osteogenic activity (osteoblasts [3]) of the same compound?
A: Its osteogenic activity is “promising osteogenic activity”.

Q: What about the “relative potency in mineralisation on bovine bone slices” value [4] of the same compound?
A: Its value is “most potent”.

Q: What about the “intensity of alizarin red staining (rate of new bone formation)” value ([4]; osteoblasts on bovine bone slices, alone or in combination) of the same compound?
A: Its value is “increased intensity of alizarin red staining”.

Q: What about the “Osteoblast cell proliferation (MTT assay)” value (primary osteoblasts; 10^−5 M) of the same compound?
A: Its value is 1.28 ± 0.08.

Q: And the “Osteoblast cell proliferation (MTT assay)” value (primary osteoblasts; 10^−6 M)?
A: The value was 1.47 ± 0.14.

Q: What about the “Osteoblast cell proliferation (MTT assay)” value (primary osteoblasts; 10^−7 M) of the same compound?
A: The value was 1.35 ± 0.16.

Q: And the “Osteoblast cell proliferation (MTT assay)” value (primary osteoblasts; 10^−8 M)?
A: Its value is 1.24 ± 0.18.

Q: And the “Osteoblast cell proliferation (MTT assay)” value (primary osteoblasts; 10^−9 M)?
A: The value was 1.14 ± 0.19.

Q: What about the “Osteoblast cell proliferation (MTT assay)” value (primary osteoblasts; 10^−10 M) of the same compound?
A: Its value is 1.38 ± 0.18.

Q: What about the “osteoblast cell proliferation vs vehicle control” value (primary osteoblasts; 10^−11 M to 10^−5 M) of the same compound?
A: Its value is “enhanced osteoblast cell proliferation”.

Q: And the “Osteoblast cell proliferation (MTT assay)” value (primary osteoblasts; 10^−11 M)?
A: Its value is 1.05 ± 0.03.

Q: And the alkaline phosphatase activity (osteoblasts [5]; 10^−5 M)?
A: The alkaline phosphatase activity was 3.28 ± 0.07.

Q: And the alkaline phosphatase activity (osteoblasts [5]; 10^−6 M)?
A: The alkaline phosphatase activity was 3.42 ± 0.07.

Q: And the alkaline phosphatase activity (osteoblasts [5]; 10^−7 M)?
A: The alkaline phosphatase activity was 3.50 ± 0.07.

Q: And the alkaline phosphatase activity (osteoblasts [5]; 10^−8 M)?
A: The alkaline phosphatase activity was 3.35 ± 0.10.

Q: And the alkaline phosphatase activity (osteoblasts [5]; 10^−9 M)?
A: Its alkaline phosphatase activity is 3.54 ± 0.04.

Q: What about the alkaline phosphatase activity (osteoblasts [5]; 10^−10 M) of the same compound?
A: Its alkaline phosphatase activity is 3.40 ± 0.07.

Q: What about the “expression of alkaline phosphatase vs vehicle control” value (osteoblasts [5]; 10^−11 M to 10^−5 M) of the same compound?
A: Its value is “increased expression of alkaline phosphatase”.

Q: And the alkaline phosphatase activity (osteoblasts [5]; 10^−11 M)?
A: The alkaline phosphatase activity was 3.51 ± 0.01.

Q: Which “T/C ratio (bone forming activity)” value [6] does the source give for “PTH (aa 1-34): Parathyroid hormone (PTH; aa 1-34), an osteogenic agent, taken as positive control (SVSEIQLMHNLGKHLNSMERVEWLRKKLQDVHNF; Parathyroid hormone; UniProt P01270 32-65, looked up, fragment)” here?
A: Its value is 0.44.
